Columns and labels:
Assay in all cases: cells
[1] = test system: MeWo; format: functional, cell-based, Homo sapiens; settings: Homo sapiens, MeWo;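 note: growth inhibition of MeWo cells, determined by a cell viability readout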
Description: SANGER: Inhibition of human Mewo cell growth in a cell viability assay.

[2] = test system: NCI-H1793; format: functional, cell-based, Homo sapiens; settings: Homo sapiens, NCI-H1793;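 note: cell growth inhibition, read out by a cell viability assay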
Description: SANGER: Inhibition of human NCI-H1793 cell growth in a cell viability assay.

[3] = test system: MIA PaCa-2; format: functional, cell-based, Homo sapiens; settings: Homo sapiens, MIA PaCa-2;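 note: growth inhibition of MIA PaCa-2 cells, read out with a cell viability assay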
Description: SANGER: Inhibition of human MIA-PaCa-2 cell growth in a cell viability assay.

[4] = test system: SK-N-DZ; format: functional, cell-based, Homo sapiens; settings: Homo sapiens, SK-N-DZ;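 note: growth inhibition of the cancer cell line, read out through a viability assay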
Description: SANGER: Inhibition of human SK-N-DZ cell growth in a cell viability assay.

[5] = test system: SW837; format: functional, cell-based, Homo sapiens; settings: Homo sapiens, SW837;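 note: growth inhibition of SW837 cells, determined with a cell viability assay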
Description: SANGER: Inhibition of human SW837 cell growth in a cell viability assay.

[6] = test system: BB65-RCC; format: functional, cell-based, Homo sapiens; settings: Homo sapiens, BB65-RCC;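 note: growth inhibition of the cell line, measured with a cell viability assay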
Description: SANGER: Inhibition of human BB65-RCC cell growth in a cell viability assay.

[7] = test system: OCUB-M; format: functional, cell-based, Homo sapiens; settings: Homo sapiens, OCUB-M;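 note: growth inhibition of the cancer cell line, read out through a cell viability assay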
Description: SANGER: Inhibition of human OCUB-M cell growth in a cell viability assay.

[8] = test system: Panc1005; format: functional, cell-based, Homo sapiens; settings: Homo sapiens, Panc1005;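 note: growth inhibition of human PANC-10-05 cells, measured by a cell viability assay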
Description: SANGER: Inhibition of human PANC-10-05 cell growth in a cell viability assay.

[9] = test system: TE-8; format: functional, cell-based, Homo sapiens; settings: Homo sapiens, TE-8;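 note: growth inhibition of TE-8 cells, measured with a cell viability readout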
Description: SANGER: Inhibition of human TE-8 cell growth in a cell viability assay.

[10] = test system: KYSE-520 cell line; format: functional, cell-based, Homo sapiens; settings: Homo sapiens, KYSE-520;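 note: growth inhibition of human KYSE-520 cells, read out with a viability assay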
Description: SANGER: Inhibition of human KYSE-520 cell growth in a cell viability assay.

[11] = test system: COLO-678; format: functional, cell-based, Homo sapiens; settings: Homo sapiens, COLO-678
Description: SANGER: Inhibition of human COLO-678 cell growth in a cell viability assay.

[12] = test system: Capan-2; format: functional, cell-based, Homo sapiens; settings: Homo sapiens, Capan-2;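 note: Capan-2 cell growth inhibition, read out with a viability assay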
Description: SANGER: Inhibition of human Capan-2 cell growth in a cell viability assay.

[13] = test system: NCI-H1437; format: functional, cell-based, Homo sapiens; settings: Homo sapiens, NCI-H1437;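 note: growth inhibition of human NCI-H1437 cells, read out by a cell viability assay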
Description: SANGER: Inhibition of human NCI-H1437 cell growth in a cell viability assay.

[14] = test system: OVCAR-3; format: functional, cell-based, Homo sapiens; settings: Homo sapiens, OVCAR-3;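 note: growth inhibition of human OVCAR-3 cells, determined by a cell viability assay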
Description: SANGER: Inhibition of human OVCAR-3 cell growth in a cell viability assay.

[15] = test system: M059J; format: functional, cell-based, Homo sapiens; settings: Homo sapiens, M059J;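 note: growth inhibition of M059J cells, read out with a cell viability assay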
Description: SANGER: Inhibition of human M059J cell growth in a cell viability assay.

[16] = test system: SNB-75; format: functional, cell-based, Homo sapiens; settings: Homo sapiens, SNB-75;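 note: cell viability assay measuring growth inhibition of human SNB-75 cells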
Description: SANGER: Inhibition of human SNB75 cell growth in a cell viability assay.

[17] = test system: EFM-19; format: functional, cell-based, Homo sapiens; settings: Homo sapiens, EFM-19;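 note: growth inhibition of human EFM-19 cells, measured in a cell viability assay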
Description: SANGER: Inhibition of human EFM-19 cell growth in a cell viability assay.

[18] = test system: COLO-800; format: functional, cell-based, Homo sapiens; settings: Homo sapiens, COLO-800;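 note: growth inhibition of COLO-800 cells, read out with a cell viability assay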
Description: SANGER: Inhibition of human COLO-800 cell growth in a cell viability assay.

[19] = test system: RO82-W-1; format: functional, cell-based, Homo sapiens; settings: Homo sapiens, RO82-W-1;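 note: growth inhibition of human RO82-W-1 cells, measured with a cell viability assay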
Description: SANGER: Inhibition of human RO82-W-1 cell growth in a cell viability assay.

[20] = test system: SJSA-1; format: functional, cell-based, Homo sapiens; settings: Homo sapiens, SJSA-1;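 note: growth inhibition of human SJSA-1 cells, read out through a cell viability measurement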
Description: SANGER: Inhibition of human SJSA-1 cell growth in a cell viability assay.

[21] = test system: COLO-829; format: functional, cell-based, Homo sapiens; settings: Homo sapiens, COLO-829
Description: SANGER: Inhibition of human COLO-829 cell growth in a cell viability assay.

[22] = test system: C32; format: functional, cell-based, Homo sapiens; settings: Homo sapiens, C32;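 note: cell viability assay, with IC50 reflecting inhibition of C32 cell growth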
Description: SANGER: Inhibition of human C32 cell growth in a cell viability assay.

[23] = test system: Ca9-22; format: functional, cell-based, Homo sapiens; settings: Homo sapiens, Ca9-22;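 note: growth inhibition of Ca9-22 cells, read out with a cell viability assay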
Description: SANGER: Inhibition of human Ca9-22 cell growth in a cell viability assay.

[24] = test system: PANC-08-13; format: functional, cell-based, Homo sapiens; settings: Homo sapiens, PANC-08-13;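 note: cell growth inhibition, measured with a cell viability assay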
Description: SANGER: Inhibition of human PANC-08-13 cell growth in a cell viability assay.

[25] = test system: PC-3; format: functional, cell-based, Homo sapiens; settings: Homo sapiens, PC-3;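 note: cell viability assay measuring growth inhibition of PC-3 cells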
Description: SANGER: Inhibition of human PC-3 cell growth in a cell viability assay.

[26] = test system: LB2241-RCC; format: functional, cell-based, Homo sapiens; settings: Homo sapiens, LB2241-RCC;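 note: cell viability assay measuring how strongly the cultured human renal carcinoma line is prevented from growing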
Description: SANGER: Inhibition of human LB2241-RCC cell growth in a cell viability assay.

[27] = test system: ES6; format: functional, cell-based, Homo sapiens; settings: Homo sapiens, ES6;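 note: growth inhibition of human ES6 cells, read out with a cell viability assay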
Description: SANGER: Inhibition of human ES6 cell growth in a cell viability assay.

[28] = test system: C2BBe1; format: functional, cell-based, Homo sapiens; settings: Homo sapiens, C2BBe1;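 note: growth inhibition of C2BBe1 cells, read out through a viability assay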
Description: SANGER: Inhibition of human C2BBe1 cell growth in a cell viability assay.

[29] = test system: GAMG; format: functional, cell-based, Homo sapiens; settings: Homo sapiens, GAMG;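 note: cell growth inhibition measured by a viability assay in the GAMG human cell line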
Description: SANGER: Inhibition of human GAMG cell growth in a cell viability assay.

[30] = test system: LN-405; format: functional, cell-based, Homo sapiens; settings: Homo sapiens, LN-405
Description: SANGER: Inhibition of human LN-405 cell growth in a cell viability assay.

[31] = test system: HCE-T; format: functional, cell-based, Homo sapiens; settings: Homo sapiens, HCE-T;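 note: cell viability assay read-out, reporting inhibition of HCE-T cell growth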
Description: SANGER: Inhibition of human HCE-T cell growth in a cell viability assay.

[32] = test system: U2OS; format: functional, cell-based, Homo sapiens, U-2-OS; settings: Homo sapiens, U2OS;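 note: growth inhibition of human U-2-OS cells, determined with a cell viability assay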
Description: SANGER: Inhibition of human U-2-OS cell growth in a cell viability assay.

[33] = test system: DU-4475; format: functional, cell-based; settings: Homo sapiens
Description: SANGER: Inhibition of human DU-4475 cell growth in a cell viability assay.

[34] = test system: RD; format: functional, cell-based, Homo sapiens; settings: Homo sapiens, RD
Description: SANGER: Inhibition of human RD cell growth in a cell viability assay.

[35] = test system: OS-RC-2; format: functional, cell-based, Homo sapiens; settings: Homo sapiens, OS-RC-2;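 note: growth inhibition of human OS-RC-2 cells, measured by a cell viability assay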
Description: SANGER: Inhibition of human OS-RC-2 cell growth in a cell viability assay.

[36] = test system: LNCaP-Clone-FGC; format: functional, cell-based, Homo sapiens; settings: Homo sapiens, LNCaP-Clone-FGC
Description: SANGER: Inhibition of human LNCaP-Clone-FGC cell growth in a cell viability assay.

[37] = test system: CAL-39; format: functional, cell-based, Homo sapiens; settings: Homo sapiens, CAL-39;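 note: cell viability assay measuring growth inhibition of CAL-39 cells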
Description: SANGER: Inhibition of human CAL-39 cell growth in a cell viability assay.

[38] = test system: NCI-H226; format: functional, cell-based, Homo sapiens; settings: Homo sapiens, NCI-H226;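 note: cell viability read-out used to gauge growth inhibition of the cells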
Description: SANGER: Inhibition of human NCI-H226 cell growth in a cell viability assay.

[39] = test system: TE-1; format: functional, cell-based, Homo sapiens; settings: Homo sapiens, TE-1;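 note: growth inhibition of the human TE-1 cell line, read out with a cell viability assay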
Description: SANGER: Inhibition of human TE-1 cell growth in a cell viability assay.

[40] = test system: HCC1419; format: functional, cell-based, Homo sapiens; settings: Homo sapiens, HCC1419;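 note: growth inhibition of human HCC1419 cells, read out as cell viability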
Description: SANGER: Inhibition of human HCC1419 cell growth in a cell viability assay.

[41] = test system: OE33; format: functional, cell-based, Homo sapiens; settings: Homo sapiens, OE33;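 note: growth inhibition of human OE33 cells, measured by a cell viability assay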
Description: SANGER: Inhibition of human OE33 cell growth in a cell viability assay.

[42] = test system: UACC-62; format: functional, cell-based, Homo sapiens; settings: Homo sapiens, UACC-62;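 note: growth inhibition of human UACC-62 cells, read out by a cell viability assay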
Description: SANGER: Inhibition of human UACC-62 cell growth in a cell viability assay.

[43] = test system: MDA-MB-157; format: functional, cell-based, Homo sapiens; settings: Homo sapiens, MDA-MB-157
Description: SANGER: Inhibition of human MDA-MB-157 cell growth in a cell viability assay.

[44] = test system: KURAMOCHI; format: functional, cell-based; settings: Homo sapiens;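 note: growth inhibition of KURAMOCHI cells, read out with a cell viability assay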
Description: SANGER: Inhibition of human KURAMOCHI cell growth in a cell viability assay.

[45] = test system: NCI-H510A; format: functional, cell-based; settings: Homo sapiens;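 note: growth inhibition of NCI-H510A cells, read out with a cell viability assay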
Description: SANGER: Inhibition of human NCI-H510A cell growth in a cell viability assay.

[46] = test system: LS-123; format: functional, cell-based, Homo sapiens; settings: Homo sapiens, LS-123
Description: SANGER: Inhibition of human LS-123 cell growth in a cell viability assay.

[47] = test system: DJM-1; format: functional, cell-based, Homo sapiens; settings: Homo sapiens, DJM-1;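 note: growth inhibition of human DJM-1 cells, read out by a cell viability assay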
Description: SANGER: Inhibition of human DJM-1 cell growth in a cell viability assay.

[48] = test system: NCI-H2452; format: functional, cell-based, Homo sapiens; settings: Homo sapiens, NCI-H2452;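 note: growth inhibition of NCI-H2452 cells, read out with a cell viability assay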
Description: SANGER: Inhibition of human NCI-H2452 cell growth in a cell viability assay.

[49] = test system: SF-295; format: functional, cell-based, Homo sapiens; settings: Homo sapiens, SF-295;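 note: growth inhibition of SF-295 cells, read out with a cell viability assay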
Description: SANGER: Inhibition of human SF295 cell growth in a cell viability assay.

`CC(=O)O[C@@]12CO[C@@H]1C[C@H](O)[C@@]1(C)C(=O)[C@H](O)C3=C(C)[C@@H](OC(=O)[C@H](O)[C@@H](NC(=O)OC(C)(C)C)c4ccccc4)C[C@@](O)([C@@H](OC(=O)c4ccccc4)[C@H]21)C3(C)C` [DOCETAXEL] was tested, and the IC50 [1] was 5.05 nM, the IC50 [2] was > 10 nM and the IC50 [3] was 3.24 nM. The IC50 [4] was 9.83 nM, the IC50 [5] was > 10 nM and the IC50 [6] was 3.08 nM. The IC50 [7] was 4.38 nM, the IC50 [8] was > 10 nM and the IC50 [9] was 0.366 nM. The IC50 [10] was 7 nM, the IC50 [11] was > 10 nM and the IC50 [12] was > 10 nM. For the same compound, the IC50 [13] was 2.6 nM, the IC50 [14] was 4.07 nM and the IC50 [15] was 1.98 nM. It also gave an IC50 [16] of 3.81 nM, an IC50 [17] of 2.15 nM and an IC50 [18] of 0.388 nM. For the same compound, the IC50 [19] was 5.31 nM, the IC50 [20] was 0.615 nM and the IC50 [21] was 7.25 nM. The IC50 [22] was > 10 nM, the IC50 [23] was 0.423 nM and the IC50 [24] was > 10 nM. The IC50 [25] was > 10 nM, the IC50 [26] was 5.31 nM and the IC50 [27] was > 10 nM. For the same compound, the IC50 [28] was 1.82 nM, the IC50 [29] was 0.416 nM and the IC50 [30] was 4.82 nM. For the same compound, the IC50 [31] was 0.162 nM, the IC50 [32] was 1.75 nM and the IC50 [33] was 3.02 nM. For the same compound, the IC50 [34] was 4 nM, the IC50 [35] was > 10 nM and the IC50 [36] was 1.1 nM. It also gave an IC50 [37] of 1.63 nM, an IC50 [38] of 3.68 nM and an IC50 [39] of 2.16 nM. The IC50 [40] was > 10 nM, the IC50 [41] was > 10 nM and the IC50 [42] was 3.3 nM. The IC50 [43] was > 10 nM, the IC50 [44] was > 10 nM and the IC50 [45] was 0.336 nM. For the same compound, the IC50 [46] was 4.25 nM, the IC50 [47] was > 10 nM and the IC50 [48] was 2.16 nM. The IC50 [49] was > 10 nM.
For `COc1cc([C@@H]2c3cc4c(cc3[C@@H](O[C@@H]3O[C@@H]5CO[C@@H](C)O[C@H]5[C@H](O)[C@H]3O)[C@H]3COC(=O)[C@H]23)OCO4)cc(OC)c1O` [ETOPOSIDE], the IC50 [1] was 6790 nM, the IC50 [2] was 5310 nM and the IC50 [3] was 2660 nM. The IC50 [4] was > 16000 nM, the IC50 [5] was > 16000 nM and the IC50 [6] was 979 nM. The IC50 [7] was 44.6 nM, the IC50 [8] was 2890 nM and the IC50 [9] was 8750 nM. The IC50 [10] was > 16000 nM, the IC50 [11] was > 16000 nM and the IC50 [12] was > 16000 nM. For the same compound, the IC50 [13] was 3380 nM, the IC50 [14] was > 16000 nM and the IC50 [15] was 364 nM. It also gave an IC50 [16] of 10900 nM, an IC50 [17] of 868 nM and an IC50 [18] of 2100 nM. The IC50 [19] was > 16000 nM, the IC50 [20] was 2980 nM and the IC50 [21] was 1770 nM. For the same compound, the IC50 [22] was > 16000 nM, the IC50 [23] was 2190 nM and the IC50 [24] was > 16000 nM. For the same compound, the IC50 [25] was > 16000 nM, the IC50 [26] was > 16000 nM and the IC50 [27] was > 16000 nM. For the same compound, the IC50 [28] was > 16000 nM, the IC50 [29] was 2610 nM and the IC50 [30] was > 16000 nM. For the same compound, the IC50 [31] was > 16000 nM, the IC50 [32] was > 16000 nM and the IC50 [33] was 96.2 nM. The IC50 [34] was 4800 nM, the IC50 [35] was 11200 nM and the IC50 [36] was > 16000 nM. The IC50 [37] was 4640 nM, the IC50 [38] was 11200 nM and the IC50 [39] was > 16000 nM. For the same compound, the IC50 [40] was > 16000 nM, the IC50 [41] was 5120 nM and the IC50 [42] was 2920 nM. The IC50 [43] was 12600 nM, the IC50 [44] was 699 nM and the IC50 [45] was 8650 nM. For the same compound, the IC50 [46] was 4020 nM, the IC50 [47] was 203 nM and the IC50 [48] was > 16000 nM. For the same compound, the IC50 ([49]; read-out: IC50) was 1660 nM.
